From ChEMBL document CHEMBL5614418, “Discovery of novel dihydropyrrolidone-thiadiazole compound crosstalk between the YycG/F two-component regulatory pathway and cell membrane homeostasis to combat methicillin-resistant Staphylococcus aureus” (Eur J Med Chem, 2024)
Values after ≈ are worked out from the molar mass of the structure shown. Active and inactive are the calls of the source. No cut-off for these calls is given here.

What was measured:
Staphylococcus aureus [1] = experiment: Synergistic antibacterial activity against methicillin resistant Staphylococcus aureus USA300 in presence of vancomycin; assay type: functional, organism-based
[2] = system: Staphylococcus epidermidis; experiment: Synergistic antibacterial activity against Staphylococcus epidermidis SE1457 assessed as fold increase in MIC in presence of daptomycin; assay type: functional
[3] = Binding affinity to biotin-labeled cardiolipin (unknown origin) by biolayer interferometry
Staphylococcus aureus [4] = experiment: Antibacterial activity against methicillin sensitive Staphylococcus aureus SA113 in presence of palmitic acid; assay type: functional, organism-based
[5] = system: Staphylococcus epidermidis; experiment: Synergistic antibacterial activity against Staphylococcus epidermidis SE1457 in presence of linezolid; assay type: functional, organism-based
Staphylococcus aureus [6] = experiment: Downregulation of pflB gene expression level in methicillin sensitive Staphylococcus aureus SA113 at 1/2 MIC by RT-qPCR analysis; assay type: functional
Staphylococcus aureus [7] = experiment: Synergistic antibacterial activity against methicillin resistant Staphylococcus aureus USA300 assessed as fractional inhibitory concentration index in presence of daptomycin; assay type: functional
Cell membrane = experiment: Induction of cell membrane disruption in methicillin sensitive Staphylococcus aureus SA113 at 4 times MIC incubated for 2 hrs by TEM analysis; assay type: cell membranes
[8] = system: Staphylococcus epidermidis; experiment: Antibacterial activity against Staphylococcus epidermidis SE1457 in presence of oleic acid; assay type: functional, organism-based
[9] = system: Staphylococcus epidermidis; experiment: Synergistic antibacterial activity against Staphylococcus epidermidis SE1457 assessed as fractional inhibitory concentration index in presence of daptomycin; assay type: functional
Enterococcus faecalis [10] = experiment: Bactericidal activity against Enterococcus faecalis OG1RF; assay type: functional
Staphylococcus aureus [11] = experiment: Antibacterial activity against methicillin sensitive Staphylococcus aureus SA113 in presence of oleic acid; assay type: functional, organism-based
[12] = Toxicity in BALB/c mouse assessed as apparent tissue damage at 50 mg/kg, ip measured after 1 to 3 days; assay type: organism-based; details: in vivo, time 1-3 day
Enterococcus faecium [13] = experiment: Antibacterial activity against Enterococcus faecium EFM64 by broth microdilution method; assay type: functional
Staphylococcus aureus [14] = experiment: Antibacterial activity against methicillin sensitive Staphylococcus aureus CHS101; assay type: functional
[15] = system: Staphylococcus epidermidis; experiment: Induction of matured biofilm eradication in Staphylococcus epidermidis SE1457 assessed as reduction in bacterial survival in biofilm at 8 times MIC incubated for 48 hrs by SYTO 9 staining based confocal fluorescence microscopic analysis; assay type: functional
Staphylococcus aureus [16] = experiment: Synergistic bactericidal activity against Staphylococcus aureus USA300 assessed as persister cells killing by measuring log reduction in bacterial count at 8 times MIC measured after 72 hrs in presence of daptomycin; assay type: functional
Staphylococcus aureus [17] = experiment: Induction of matured biofilm eradication in methicillin resistant Staphylococcus aureus YUSA145 assessed as reduction in bacterial survival in biofilm at 8 times MIC incubated for 48 hrs by SYTO 9 staining based confocal fluorescence microscopic analysis; assay type: functional
Staphylococcus aureus [18] = experiment: Downregulation of fructosre-1, 6-diphosphate level in methicillin sensitive Staphylococcus aureus SA113 at 1/2 MIC incubated for 30 mins; assay type: functional
Staphylococcus aureus [19] = experiment: Antibacterial activity against methicillin sensitive Staphylococcus aureus SA113 assessed as fold increase in MIC in presence of phosphatidyl ethanolamine by chequerboard microdilution assay; assay type: functional
[20] = system: Staphylococcus epidermidis; experiment: Inhibition of bacterial growth in Staphylococcus epidermidis SE1457 at MIC concentration measured upto 16 hrs; assay type: functional
Staphylococcus aureus [21] = experiment: Antibacterial activity against methicillin resistant Staphylococcus aureus […] infected in BALB/c mouse wound model assessed as log reduction in wound bacterial load at 20 mg/kg, ip administered every 12 hrs for 3 times and measured after 48 hrs in presence of DAP; assay type: functional
Staphylococcus aureus [22] = experiment: Downregulation of arcC1 expression level in methicillin sensitive Staphylococcus aureus SA113 at 1/2 MIC incubated for 2 hrs by MS/MS analysis; assay type: functional
Acinetobacter baumannii = experiment: Antibacterial activity against Acinetobacter baumannii; assay type: functional, organism-based
Staphylococcus aureus [23] = experiment: Antibacterial activity against methicillin resistant Staphylococcus aureus USA300 infected in BALB/c mouse pneumonia model assessed as log reduction in lung bacterial count at 20 mg/kg, ip administered every 12 hrs for 3 times and measured after 48 hrs; assay type: functional
Staphylococcus aureus [24] = experiment: Antibacterial activity against methicillin sensitive Staphylococcus aureus SA113 assessed as reduction in membrane fluidity at 1 to 4 times MIC incubated for 30 mins by fluorescence based assay; assay type: functional, organism-based
[25] = Hemolytic activity against human erythrocytes measured after 1 hr; assay type: toxicity, cell-based, Erythrocyte
Enterococcus faecalis [26] = experiment: Antibacterial activity against Enterococcus faecalis OG1RF by broth microdilution method; assay type: functional
Staphylococcus aureus [27] = experiment: Downregulation of arcC2 expression level in methicillin sensitive Staphylococcus aureus SA113 at 1/2 MIC incubated for 2 hrs by MS/MS analysis; assay type: functional
[28] = Toxicity in BALB/c mouse assessed as change in BUN level at 50 mg/kg, ip measured after 1 to 3 days; assay type: organism-based; details: in vivo, time 1-3 day
Enterococcus faecium [29] = experiment: Bactericidal activity against Enterococcus faecium EFM64; assay type: functional
[30] = system: Staphylococcus epidermidis; experiment: Synergistic bactericidal activity against Staphylococcus epidermidis SE1457 assessed as persister cells killing by measuring log reduction in bacterial count at 8 times MIC measured after 72 hrs in presence of daptomycin; assay type: functional
[31] = system: Staphylococcus epidermidis; experiment: Induction of resistance development in Staphylococcus epidermidis SE1457 assessed as fold increase in MIC at 1/2 MIC incubated for 16 hrs after 20 serial passages; assay type: functional
[32] = Toxicity in BALB/c mouse assessed as change in Na+ level at 50 mg/kg, ip measured after 1 to 3 days; assay type: organism-based; details: in vivo, time 1-3 day
Staphylococcus aureus [33] = experiment: Antibacterial activity against methicillin resistant Staphylococcus aureus USA300 infected in BALB/c mouse wound model assessed as log reduction in wound bacterial load at 20 mg/kg, ip administered every 12 hrs for 3 times and measured after 48 hrs in presence of DAP; assay type: functional
Staphylococcus aureus [34] = experiment: Induction of matured biofilm eradication in methicillin resistant Staphylococcus aureus YUSA145 assessed as reduction in bacterial survival in biofilm at 8 times MIC incubated for 48 hrs in presence of daptomycin by SYTO 9 staining based confocal fluorescence microscopic analysis; assay type: functional
Staphylococcus aureus [35] = experiment: Synergistic antibacterial activity against methicillin resistant Staphylococcus aureus USA300 in presence of linezolid; assay type: functional, organism-based
[36] = system: Staphylococcus epidermidis; experiment: Antibacterial activity against Staphylococcus epidermidis SE1457 in presence of palmitic acid; assay type: functional, organism-based
Staphylococcus aureus [37] = experiment: Downregulation of intracellular ATP level in methicillin sensitive Staphylococcus aureus SA113 at 1 to 4 times MIC incubated for 30 mins; assay type: functional, cell-based
[38] = Cytotoxicity against human LX2 cells incubated for 24 hrs by CCK8 assay; assay type: toxicity, cell-based; details: LX-2 cells
Klebsiella pneumoniae = experiment: Antibacterial activity against Klebsiella pneumoniae; assay type: functional, organism-based
Staphylococcus aureus [39] = experiment: Downregulation of arcC2 gene expression level in methicillin sensitive Staphylococcus aureus SA113 at 1/2 MIC by RT-qPCR analysis; assay type: functional
[40] = system: Staphylococcus epidermidis; experiment: Inhibition of bacterial growth in Staphylococcus epidermidis SE1457 at 1/2 MIC concentration measured upto 16 hrs; assay type: functional, organism-based
Staphylococcus aureus [41] = experiment: Inhibition of bacterial growth in methicillin sensitive Staphylococcus aureus SA113 at 1/2 MIC concentration measured upto 16 hrs; assay type: functional, organism-based
[42] = Toxicity in BALB/c mouse assessed as change in K+ level at 50 mg/kg, ip measured after 1 to 3 days; assay type: organism-based; details: in vivo, time 1-3 day
[43] = system: Staphylococcus epidermidis; experiment: Bactericidal activity against Staphylococcus epidermidis SE1457; assay type: functional

## O=C(C1=C(O)C(=O)N(c2nnc(SCc3ccccc3Cl)s2)C1c1ccccc1O)c1cc2ccccc2o1 (stereo not drawn)
Staphylococcus aureus [1]
  Activity: inactive
[2]
  fold change (FC): 2
[3]
  Kd: 44.1 µM
Staphylococcus aureus [4]
  Activity: inactive
[5]
  Activity: inactive
Staphylococcus aureus [6]
  Activity: Active
Staphylococcus aureus [7]
  fractional inhibitory concentration index (FICI): <=0.5
Cell membrane
  Activity: Active
[8]
  Activity: inactive
[9]
  fractional inhibitory concentration index (FICI): <=0.5
Enterococcus faecalis [10]
  MBC: 100 µM (≈ 57.6 µg/mL)
Staphylococcus aureus [11]
  Activity: inactive
[12]
  Activity: Non-Toxic
Enterococcus faecium [13]
  MIC50: ≥ 50 µM
  MIC90: ≥ 50 µM
Staphylococcus aureus [14]
  MIC: 12.5 µM (≈ 7.2 µg/mL)
[15]
  Activity: <50%
Staphylococcus aureus [16]
  log(activity): 3
Staphylococcus aureus [17]
  Activity: <50%
Staphylococcus aureus [18]
  Activity: Active
Staphylococcus aureus [19]
  fold change (FC): 16
[20]
  inhibition (INH): 100%
Staphylococcus aureus [21]
  log(activity): 3.5
Staphylococcus aureus [22]
  Activity: Active
Acinetobacter baumannii
  Activity: Active
Staphylococcus aureus [23]
  log(activity): 2
Staphylococcus aureus [24]
  Activity: Active
[25]
  HC50 at 1 h: > 200 µM
Enterococcus faecalis [26]
  MIC50: ≥ 50 µM
  MIC90: ≥ 50 µM
Staphylococcus aureus [27]
  Activity: Active
[28]
  Activity: Non-Toxic
Enterococcus faecium [29]
  MBC: 100 µM (≈ 57.6 µg/mL)
[30]
  log(activity): 3
[31]
  Activity: inactive
[32]
  Activity: Non-Toxic
Staphylococcus aureus [33]
  log(activity): 3.5
Staphylococcus aureus [34]
  Activity: >70%
Staphylococcus aureus [35]
  Activity: inactive
[36]
  Activity: inactive
Staphylococcus aureus [37]
  Activity: Active
[38]
  CC50 at 24 h: > 100 µM
Klebsiella pneumoniae
  Activity: Active
Staphylococcus aureus [39]
  Activity: Active
[40]
  growth inhibition (GI): Active
Staphylococcus aureus [41]
  growth inhibition (GI): Active
[42]
  Activity: Non-Toxic
[43]
  MBC: 25 µM (≈ 14.4 µg/mL)
